{"source": "patent EP0194794A2", "about": "“Saccharide digestion inhibiting composition” (Takeda Chemical Industries, Ltd., priority 1985, dated 1986)", "key": {"[1]": {"assay": "Property of feces in rats fed test ration, single organism (Reference Example 1)", "type": "in vivo, male Jcl:SD rats", "conditions": "36 to 48 hours", "method": "One gram of the mixture prepared in Example 1 and one gram of cells of lactic acid producing bacteria of a kind different from the bacteria used in Example 1 were mixed with 99 g of commercial powder feed (CE-2) to give a test ration. This ration was given to male Jcl:SD rats aged 7 weeks (6 animals per group) and the property of feces excreted after 36 to 48 hours was examined. Control animals received a mixture of 10 mg of AO-128 and 100 g of 'powder feed."}, "[2]": {"assay": "Property of feces in rats fed test ration, 2 or more bacteria (Reference Example 2)", "type": "in vivo, Jcl:SD rats", "conditions": "36 to 48 hours", "method": "Using 2 or more different bacteria, test rations were prepared by the same procedure as Reference Example 1. However, the amount of potato starch was reduced to adjust for the volume increase due to the cells to provide a composition containing cells of AO-128 and the composition was mixed with feed. The resulting ration was given to 7-week-old Jcl:SD rats (5 animals per group) and the property of feces after 36 to 48 hours was observed. Control rats received a mixture of 10 mg of AO-128 and 100 g of powder feed."}, "[3]": {"assay": "Influence on dietary hyperglycemia and hyperinsulinemia (Reference Example 3)", "type": "in vivo, male Jcl:SD rats", "conditions": "mean ± SD, n=6", "method": "The rations prepared in the same manner as Reference Example 1 were given to 8-week-old male Jcl:SD rats (6 individuals per group) which had not been fed for 24 hours to investigate how the administration of lactic acid producing bacteria would influence the inhibitory effect of AO-128 on the hyperglycemia and hyperinsuleinemia following a diet intake.\nBlood samples were collected from the tail vein immediately before feeding and 30, 60 and 120 minutes after feeding and the plasma glucose and insulin levels were determined."}, "[4]": {"assay": "28-day feeding of rats with Zucker obesity (Reference Example 4)", "type": "in vivo, male rats with Zucker obesity", "conditions": "ration fed for 28 days", "method": "In the analysis for body fat, the liver, the adipose tissue of the epididymis, the digestive tract and its contents were removed and the remainder was used as a sample. The rations containing the bacterial cells were prepared every other day and fed."}, "Acute toxicity study": {"assay": "Acute toxicity study", "type": "in vivo, rats", "conditions": "oral administration, 10 g/kg body weight", "from_the_text": "When this was mixed with 10^11 cells of any of the 3 different lactic acid producing bacteria used in the present invention and the mixture was orally administered at the same time as AO-128 (10 g/kg body weight), no influence was observed."}}, "note": "Marks after values point to notes of the source that are not given here."}
{"smiles": "OCC(CO)N[C@H]1C[C@](O)(CO)[C@@H](O)[C@H](O)[C@H]1O", "note": "[AO-128, N-(1,3-Dihydroxy-2-propyl)valiolamine]", "values": [{"measurement": "Property of feces ±", "setting": "[1]; number of rats (6 per group) with fecal masses, a diffusion of water noted on filter paper", "value": 0}, {"measurement": "Property of feces -", "setting": "[1]; number of rats (6 per group) with fecal masses, no diffusion of water on filter paper", "value": 0}, {"measurement": "Property of feces +", "setting": "[1]; number of rats (6 per group) with feces unformed (watery stool)", "value": 6}, {"measurement": "Property of feces ±", "setting": "[2]; number of rats (5 per group) with fecal masses, diffusion of water on filter paper", "value": 2}, {"measurement": "Property of feces -", "setting": "[2]; number of rats (5 per group) with fecal masses, no diffusion of water on filter paper", "value": 0}, {"measurement": "Property of feces +", "setting": "[2]; number of rats (5 per group) with feces unformed (watery stool)", "value": 3}, {"measurement": "Plasma glucose level 30 min.", "setting": "[3]; 30 minutes after feeding", "value": "141± 8^a mg/dl"}, {"measurement": "Plasma glucose level 60 min.", "setting": "[3]; 60 minutes after feeding", "value": "154±11^a mg/dl"}, {"measurement": "Plasma glucose level 120 min.", "setting": "[3]; 120 minutes after feeding", "value": "152±11^a mg/dl"}, {"measurement": "Plasma glucose level 0 min.", "setting": "[3]; immediately before feeding, rats not fed for 24 hours", "value": "101 ± 10", "unit": "mg/dL"}, {"measurement": "diarrhea", "setting": "[4]; animals with diarrhea / animals in group", "value": "6/6"}, {"measurement": "body fat", "setting": "[4]; carcass without liver, epididymal adipose tissue, digestive tract, n=6", "value": "19.8±5.4^b %"}, {"measurement": "body weight gain", "setting": "[4]; mean ± SD, n=6", "value": "132±28^a g/28day"}, {"measurement": "food consumption", "setting": "[4]; mean ± SD, n=6", "value": "602±56^a g/28day"}, {"measurement": "food conversion", "setting": "[4]; mean ± SD, n=6", "value": "21.9±3.6^b %"}, {"measurement": "death in acute toxicity study", "setting": "Acute toxicity study", "value": "caused no death"}]}
